Source: US20080161365A1, “Methylene Derivatives” (PFIZER INC., priority 2005, published 2008)
Values after ≈ are worked out from the molar mass of the structure shown. Values joined by “and” are separate entries in the source; they are usually repeats but may differ in a detail not shown here. Equal entries are not always repeated.

Key:
[1] = target: T1, MMP-2 full-length (Homo sapiens, UniProt P08253); test: MMP-2 full-length thiopeptolide hydrolysis inhibition; type: biochemical; details: read-out: MMP-2FL IC50
T1 construct: further screened with full-length MMP-2, full-length MMP-7, full-length MMP-9
T1 sequence (P08253 110-660): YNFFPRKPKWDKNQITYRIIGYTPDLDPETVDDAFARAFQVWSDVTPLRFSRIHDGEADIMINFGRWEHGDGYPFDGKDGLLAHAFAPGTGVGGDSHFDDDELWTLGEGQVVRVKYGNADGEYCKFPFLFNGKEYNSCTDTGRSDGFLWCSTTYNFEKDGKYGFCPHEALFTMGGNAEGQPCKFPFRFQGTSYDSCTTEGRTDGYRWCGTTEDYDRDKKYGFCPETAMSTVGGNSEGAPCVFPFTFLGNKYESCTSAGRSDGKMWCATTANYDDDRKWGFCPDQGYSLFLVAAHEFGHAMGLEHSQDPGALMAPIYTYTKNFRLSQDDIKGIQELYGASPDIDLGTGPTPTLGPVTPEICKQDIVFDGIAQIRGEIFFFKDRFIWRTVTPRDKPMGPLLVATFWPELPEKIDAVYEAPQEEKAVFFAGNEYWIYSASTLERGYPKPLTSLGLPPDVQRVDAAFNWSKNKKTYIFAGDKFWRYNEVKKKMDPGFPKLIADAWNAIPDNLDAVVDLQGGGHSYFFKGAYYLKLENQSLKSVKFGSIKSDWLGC
Description: (§1) In general, the MMP inhibition assays measure the amount by which a test compound reduces the hydrolysis of a thiopeptolide substrate catalyzed by a matrix metalloproteinase enzyme. Such assays are described in detail by Ye et al., in Biochemistry, 1992;31(45):11231-11235, which is incorporated herein by reference.
Thiopeptolide substrates show virtually no decomposition or hydrolysis at or below neutral pH in the absence of a matrix metalloproteinase enzyme. A typical thiopeptolide substrate commonly utilized for assays is Ac-Pro-Leu-Gly-thioester-Leu-Leu-Gly-OEt. A 100 μL assay mixture will contain 50 mM of N-2-hydroxyethylpiperazine-N′-2-ethanesulfonic acid buffer (“HEPES,” pH 7.0), 10 mM CaCl2, 100 μM thiopeptolide substrate, and 1 mM 5,5′-dithio-bis-(2-nitrobenzoic acid) (DTNB). The thiopeptolide substrate concentration may be varied, for example from 10 to 800 μM to obtain Km and Kcat values. The change in absorbance at 405 nm is monitored on a Thermo Max microplate reader (molecular Devices, Menlo Park, Calif.) at room temperature (22° C.). The calculation of the amount of hydrolysis of the thiopeptolide substrate is based on E412=13600 M^−1 cm^−1 for the DTNB-derived product 3-carboxy-4-nitrothiophenoxide. […]

[2] = target: T2, MMP-8 catalytic domain (Homo sapiens, UniProt P22894); test: MMP-8 catalytic domain thiopeptolide hydrolysis inhibition; type: biochemical; details: read-out: MMP-8CD IC50
T2 construct: MMP-7 full-length, MMP-8 catalytic domain, MMP-9 full-length
T2 sequence (P22894 100-262 limits assumed, species assumed): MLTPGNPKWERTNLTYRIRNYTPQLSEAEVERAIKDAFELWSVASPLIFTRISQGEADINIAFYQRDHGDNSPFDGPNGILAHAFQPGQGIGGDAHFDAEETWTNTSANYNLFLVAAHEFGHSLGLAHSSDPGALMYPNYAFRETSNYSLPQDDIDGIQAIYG
Description: as §1
(§2) Thiopeptolide substrates show virtually no decomposition or hydrolysis at or below neutral pH in the absence of a matrix metalloproteinase enzyme. A typical thiopeptolide substrate commonly utilized for assays is Ac-Pro-Leu-Gly-thioester-Leu-Leu-Gly-OEt. A 100 μL assay mixture will contain 50 mM of N-2-hydroxyethylpiperazine-N′-2-ethanesulfonic acid buffer (“HEPES,” pH 7.0), 10 mM CaCl2, 100 μM thiopeptolide substrate, and 1 mM 5,5′-dithio-bis-(2-nitrobenzoic acid) (DTNB). The thiopeptolide substrate concentration may be varied, for example from 10 to 800 μM to obtain Km and Kcat values. The change in absorbance at 405 nm is monitored on a Thermo Max microplate reader (molecular Devices, Menlo Park, Calif.) at room temperature (22° C.). The calculation of the amount of hydrolysis of the thiopeptolide substrate is based on E412=13600 M^−1 cm^−1 for the DTNB-derived product 3-carboxy-4-nitrothiophenoxide. Assays are carried out with and without matrix metalloproteinase inhibitor compounds, and the amount of hydrolysis is compared for a determination of inhibitory activity of the test compounds.
(§3) Test compounds were evaluated at various concentrations in order to determine their respective IC50 values, the micromolar concentration of compound required to cause a 50% inhibition of catalytic activity of the respective enzyme.
Certain compounds of formula (I) have been assayed with MMP-1 full-length, MMP-2 full-length, MMP-3 catalytic domain, MMP-7 full-length, MMP-8 catalytic domain, MMP-9 full-length, MMP-12 catalytic domain, and MMP-14 catalytic domain.

[3] = PDS solubility (Chemical Method 1, UV-visible absorbance of saturated solution); type: physicochemical; details: thermodynamic from solid; pH 6.5 aqueous phosphate buffer, 5% glyme
Experimental: Solubility of a test compound of the present invention refers to solubility of the compound in a solvent mixture containing ethylene glycol dimethylether (“glyme”) and pH 6.5 aqueous phosphate buffer. The solubility was determined by measuring ultraviolet-visible absorbance of a saturated solution of the compound and comparing the absorbance value to absorbance values obtained for four standard solutions of the compound having known concentrations plotted on a 4-point ultraviolet-visible standard curve. […]
The prepared 96-well plate was transferred to a 96-well ultraviolet-visible plate reader, and the wells were scanned over wavelengths of from 220 nm to 350 nm with a step size of 2 nm. The ultraviolet-visible data (i.e., data generated at the same wavelength) were electronically exported to a spreadsheet and absorbance data for the filtrate of the saturated solution measured at one wavelength (i.e., the data that had the best linear fit as calculated by the highest regression coefficient, typically 0.98 or higher) and the corresponding standards absorbance data measured at the same wavelength were plotted as a standard absorbance-concentration curve based on the Lambert-Beer law. […] The calculated solubility was expressed as in milligrams of test compound in milliliters of solvent. […]

[4] = target: T3, MMP-12 catalytic domain (Homo sapiens, UniProt P39900); test: MMP-12 catalytic domain thiopeptolide hydrolysis inhibition; type: biochemical; details: read-out: MMP-12CD IC50
T3 construct: MMP-9 full-length, MMP-12 catalytic domain, and MMP-14 catalytic domain
T3 sequence (P39900 106-263 limits assumed, species assumed): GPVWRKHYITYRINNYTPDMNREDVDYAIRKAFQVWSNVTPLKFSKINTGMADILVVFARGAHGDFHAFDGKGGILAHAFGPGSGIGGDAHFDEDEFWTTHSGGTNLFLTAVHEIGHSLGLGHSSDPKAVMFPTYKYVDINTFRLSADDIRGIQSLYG
Description: as §1, §2, §3
(§4) The test described above for the inhibition of MMP-13 may also be adapted and used to determine the ability of the compounds of formula (I) to inhibit the matrix metalloproteases MMP-1, MMP-2, MMP-3, MMP-7, MMP-9, MMP-12, MMP-14, and MMP-17. […]

[5] = target: T4, MMP-7 full-length (Homo sapiens, UniProt P09237); test: MMP-7 full-length thiopeptolide hydrolysis inhibition; type: biochemical; details: read-out: MMP-7FL IC50
T4 construct: further screened with full-length MMP-2, full-length MMP-7, full-length MMP-9
T4 sequence (P09237 95-267): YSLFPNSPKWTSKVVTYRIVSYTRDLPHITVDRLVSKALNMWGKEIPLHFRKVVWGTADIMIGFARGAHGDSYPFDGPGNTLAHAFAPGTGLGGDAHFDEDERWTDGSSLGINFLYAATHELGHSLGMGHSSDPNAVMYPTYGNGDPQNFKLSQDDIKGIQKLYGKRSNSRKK
Description: as §1, §2, §3, §4

[6] = target: T5, MMP-13 catalytic domain (Homo sapiens, UniProt P45452); test: MMP-13 catalytic domain thiopeptolide hydrolysis inhibition (Biological Method 1); type: biochemical; details: HEPES pH 7.0, 22° C.; read-out: MMP-13CD IC50
T5 construct: use the catalytic domain of the MMP-13 enzyme, namely matrix metalloproteinase-13 catalytic domain
Description: as §1
Some of the particular methods described below use the catalytic domain of the MMP-13 enzyme, namely matrix metalloproteinase-13 catalytic domain (“MMP-13CD”), rather than the corresponding full-length enzyme, MMP-13. It has been shown previously by Ye Qi-Zhuang, Hupe D., and Johnson L. (Current Medicinal Chemistry, 1996;3:407-418) that inhibitor activity against a catalytic domain of an MMP is predictive of the inhibitor activity against the respective full-length MMP enzyme.
Thiopeptolide substrates show virtually no decomposition or hydrolysis at or below neutral pH in the absence of a matrix metalloproteinase enzyme. A typical thiopeptolide substrate commonly utilized for assays is Ac-Pro-Leu-Gly-thioester-Leu-Leu-Gly-OEt. A 100 μL assay mixture will contain 50 mM of N-2-hydroxyethylpiperazine-N′-2-ethanesulfonic acid buffer (“HEPES,” pH 7.0), 10 mM CaCl2, 100 μM thiopeptolide substrate, and 1 mM 5,5′-dithio-bis-(2-nitrobenzoic acid) (DTNB). The thiopeptolide substrate concentration may be varied, for example from 10 to 800 μM to obtain Km and Kcat values. The change in absorbance at 405 nm is monitored on a Thermo Max microplate reader (molecular Devices, Menlo Park, Calif.) at room temperature (22° C.). The calculation of the amount of hydrolysis of the thiopeptolide substrate is based on E412=13600 M^−1 cm^−1 for the DTNB-derived product 3-carboxy-4-nitrothiophenoxide. Assays are carried out with and without matrix metalloproteinase inhibitor compounds, and the amount of hydrolysis is compared for a determination of inhibitory activity of the test compounds. […]

[7] = target: T6, MMP-3 catalytic domain (Homo sapiens, UniProt P08254); test: MMP-3 catalytic domain thiopeptolide hydrolysis inhibition; type: biochemical; details: MES buffer pH 6.0; read-out: MMP-3CD IC50
T6 construct: MMP-2 full-length, MMP-3 catalytic domain, MMP-7 full-length
T6 sequence (P08254 100-272 limits assumed, species assumed): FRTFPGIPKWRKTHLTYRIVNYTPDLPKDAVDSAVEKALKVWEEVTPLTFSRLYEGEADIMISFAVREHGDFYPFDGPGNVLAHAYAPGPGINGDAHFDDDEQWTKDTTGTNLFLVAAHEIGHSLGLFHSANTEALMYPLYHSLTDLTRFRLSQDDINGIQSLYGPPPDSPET
Description: as §1, §2, §3
The assay buffer used with MMP-3CD was 50 mM N-morpholinoethane sulfonate (“MES”) at pH 6.0 rather than the HEPES buffer at pH 7.0 described above.
as §4

[8] = target: T7, MMP-14 catalytic domain (Homo sapiens, UniProt P50281); test: MMP-14 catalytic domain thiopeptolide hydrolysis inhibition; type: biochemical; details: read-out: MMP-14CD IC50
T7 construct: MMP-9 full-length, MMP-12 catalytic domain, and MMP-14 catalytic domain
Description: as §1, §2, §3, §4

[9] = target: T8, MMP-9 full-length (Homo sapiens, UniProt P14780); test: MMP-9 full-length thiopeptolide hydrolysis inhibition; type: biochemical; details: read-out: MMP-9FL IC50
T8 construct: further screened with full-length MMP-2, full-length MMP-7, full-length MMP-9
T8 sequence (P14780 94-707, species assumed): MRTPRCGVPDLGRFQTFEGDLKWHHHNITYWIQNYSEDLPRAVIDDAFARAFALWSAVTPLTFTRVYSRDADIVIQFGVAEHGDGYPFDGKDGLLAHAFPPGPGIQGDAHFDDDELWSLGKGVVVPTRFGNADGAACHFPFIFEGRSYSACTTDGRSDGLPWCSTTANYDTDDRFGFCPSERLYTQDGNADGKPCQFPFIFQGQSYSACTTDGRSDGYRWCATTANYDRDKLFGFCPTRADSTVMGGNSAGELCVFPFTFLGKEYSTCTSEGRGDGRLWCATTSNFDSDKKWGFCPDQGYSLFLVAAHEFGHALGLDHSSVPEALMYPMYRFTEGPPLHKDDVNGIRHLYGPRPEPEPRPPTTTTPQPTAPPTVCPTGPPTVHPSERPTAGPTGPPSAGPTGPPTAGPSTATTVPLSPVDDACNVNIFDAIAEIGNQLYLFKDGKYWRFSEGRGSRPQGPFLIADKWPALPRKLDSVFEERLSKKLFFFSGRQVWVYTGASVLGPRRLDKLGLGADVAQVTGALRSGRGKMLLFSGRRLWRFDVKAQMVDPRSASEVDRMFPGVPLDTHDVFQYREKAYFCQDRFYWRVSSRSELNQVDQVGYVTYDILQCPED
Description: as §1, §2, §3, §4

[10] = target: T9, MMP-1 full-length (Homo sapiens, UniProt P03956); test: MMP-1 full-length thiopeptolide hydrolysis inhibition; type: biochemical; details: read-out: MMP-1FL IC50
T9 construct: have been assayed with MMP-1 full-length, MMP-2 full-length
T9 sequence (P03956 100-469): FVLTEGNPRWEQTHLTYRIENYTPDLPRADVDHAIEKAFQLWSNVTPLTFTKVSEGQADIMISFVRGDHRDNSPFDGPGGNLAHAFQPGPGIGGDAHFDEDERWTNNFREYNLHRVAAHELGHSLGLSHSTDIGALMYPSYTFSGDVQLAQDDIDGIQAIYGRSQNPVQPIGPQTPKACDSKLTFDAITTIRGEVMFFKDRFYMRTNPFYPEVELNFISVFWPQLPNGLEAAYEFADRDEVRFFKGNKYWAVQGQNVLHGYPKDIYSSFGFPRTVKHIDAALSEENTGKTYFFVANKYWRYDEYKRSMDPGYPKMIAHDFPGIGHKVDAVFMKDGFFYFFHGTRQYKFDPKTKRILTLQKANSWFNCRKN
Description: as §1, §2, §3, §4

IC50 [1] [µM] | IC50 [2] [µM] | solubility [3] [µg/mL] | IC50 [4] [µM] | IC50 [5] [µM] | IC50 [6] | IC50 [7] [µM] | IC50 [8] [µM] | IC50 [9] [µM] | IC50 [10] [µM] | SMILES
> 100 | > 30 | 4 | > 100 | 1.7 | 0.087 µM and 0.11 µM | 13 | > 100 | 64 | > 100 | Cc1cc(C(F)(F)CCc2ccc(C(=O)O)cc2)cc(C(=O)NCc2cccc(C(F)(F)F)c2)n1.O=C(O)C(F)(F)F [Example 2, 4-{3,3-difluoro-3-[2-methyl-6-(3-trifluoromethyl-benzylcarbamoyl)-pyridin-4-yl]-propyl}-benzoic acid monotrifluoroacetic acid salt]
– | > 30 | 27 (≈ 56.9 µM) | > 100 | 51 | 0.028 µM and 0.039 µM | 11 | 56 | 51 | > 100 | Cc1cc(C(F)CCc2ccc(C(=O)O)cc2)cc(C(=O)NCc2cccc(C(F)(F)F)c2)n1 (stereo not shown) [Example 1, 4-{3-fluoro-3-[2-methyl-6-(3-trifluoromethyl-benzylcarbamoyl)-pyridin-4-yl]-propyl}-benzoic acid]
90 | > 100 | – | > 100 | < 10 | 0.062 µM | 6 | > 100 | < 10 | > 100 | Cc1cc(C(O)CCc2ccc(C(=O)O)cc2)cc(C(=O)NCc2cccc(C(F)(F)F)c2)n1 (stereo not shown) [Example 3, 4-{3-hydroxy-3-[2-methyl-6-(3-trifluoromethyl-benzylcarbamoyl)-pyridin-4-yl]-propyl}-benzoic acid]
